Key:
[1] = system: patient with obstructive sleep apnea; experiment: Repeated dosing, multiple medication study with calcium acamprosate and a weight reducing agent (sibutramine); polysomnographic investigation; format: in vivo, human
Description: The patient had recently been started on sibutramine (Reductil® capsules, 15 mg once daily) for weight loss. A follow-up sleep investigation (investigation 2) was performed 126 days later when the patient presented a BMI of 31.8. The AHI at this occasion was 19. Calcium acamprosate therapy was started on 333 mg three times per day orally (Campral® tablets) and increased to twice 333 mg three times per day after two weeks. At the end of this treatment period of four weeks (investigation 3) the BMI was marginally changed compared with investigation 2 (31.6) but AHI had decreased to 9.

OSA patient = experiment: Repeated dosing study with calcium acamprosate in an OSA patient (polysomnographic recording); format: in vivo, human
Description: A study of repeated calcium acamprosate dosing was undertaken in a patient with a BMI of 32.2. This patient had not consumed any alcohol during the 3 months proceeding the current medication period. The patient suffered from moderate OSA (as determined by an AH index in excess of 35 during previous clinical 8-channel overnight monitoring studies). The contribution from central apneas was low and constituted 5% of obstructive events, respectively. A baseline polysomnographic recording (standard sleep montage, nasal pressure recording) was undertaken at baseline and calcium acamprosate therapy was started on 333 mg three times per day orally (Campral® tablets) with an increase to 2 times 333 mg three times per day after two weeks. Key parameters (indices) were recorded at first dosing and after daily dosing for three weeks (Table).

[2] = pending dosage, route of administration, and dosing scheme; extended in renal impairment; cited from earlier work
[3] = Week 0, investigation 1 (admission), recently started on sibutramine 15 mg once daily
[4] = Week 18, investigation 2 (126 days later), sibutramine 15 mg once daily
[5] = Week 3 of oral calcium acamprosate, Week 0 baseline 3

Structure (SMILES)	AHI (apnea/hypopnea index, number of obstructive apneic/hypopneic events per hour of sleep) [1, 3]	BMI (body mass index) [1, 3] [kg/m^2]	AHI (apnea/hypopnea index, number of obstructive apneic/hypopneic events per hour of sleep) [1, 4]	BMI (body mass index) [1, 4] [kg/m^2]	Apnea reducing effect in a patient with sleep apnea ([1]; added to sibutramine)	Effect of calcium acamprosate in comparison with that obtained by the weight reducing agent ([1]; combined with sibutramine)	CSAI (central sleep apnea index, number of central apneic events per hour of sleep) (OSA patient; [5])	Sat <90%/hr (number of apneic/hypopneic episodes per hour of sleep with an oxygen saturation below 90%) (OSA patient; [5])	AI (apnea index, number of obstructive apneic events per hour of sleep) (OSA patient; Week 3 of oral calcium acamprosate, Week 0 baseline 18)	HI (hypopnea index, number of obstructive hypopneic events per hour of sleep) (OSA patient; Week 3 of oral calcium acamprosate, Week 0 baseline 22)	AHI (apnea/hypopnea index, number of obstructive apneic/hypopneic events per hour of sleep) (OSA patient; Week 3 of oral calcium acamprosate, Week 0 baseline 40)	MinSat (lowest oxygen saturation value recorded during the period of sleep) (OSA patient; Week 3 of oral calcium acamprosate, Week 0 baseline 86)	Number of central and mixed events (OSA patient; after calcium acamprosate, polysomnography)	Daytime sleepiness (patient-reported) (OSA patient; already after one week)	Snoring (patient-reported) (OSA patient; early after introduction of the medication)	Apnea reducing effect in sleep apnea (OSA patient; obstructive and seemingly central events, maintained over the entire study period)	Side effects (OSA patient; three-week study, one patient)	Half-life in plasma [2] [h]
CC(C)CC(N(C)C)C1(c2ccc(Cl)cc2)CCC1 (stereo not drawn) [Sibutramine, sibutramine]	30 events per hour of sleep	33.2	19 events per hour of sleep	31.8	–	–	–	–	–	–	–	–	–	–	–	–	–	–
CC(=O)NCCCS(=O)(=O)O [calcium acamprosate]	–	–	–	–	potent apnea reducing effect	additive	2 events per hour of sleep	1 episodes per hour of sleep	7 events per hour of sleep	9 events per hour of sleep	16 events per hour of sleep	91	seemed to decrease in proportion to the number of obstructive events	reduction in daytime sleepiness	notable reduction in snoring	potent apnea reducing effect	No significant side effects	15 to 30

From patent US20080261931A1, “Method and Means of Preventing and Treating Sleep Disordered Breathing” (Cereu-Science AB, priority 2005, published 2008)
